One compound from publication PMC11997890, “In Vivo and In Vitro Pharmacokinetic Studies of a Dual Topoisomerase I/II Inhibitor” (ACS Pharmacology & Translational Science, 2025) can be followed below.

In one series the target is T1, CYP1A2 (Homo sapiens, UniProt P05177).
T1 construct: host or cells: human liver microsomes (one value) / recombinant CYP enzyme (other value)
In words: In vitro CYP inhibition, marker substrate phenacetin. It counts as in vitro ADME. On the procedure: (§1) To assess metabolizing enzyme-mediated drug interactions, P8-D6 was incubated with human liver (HLM) or recombinant CYP enzymes and the respective marker substrate according to the FDA (with the exception of using amitriptyline instead of S-mephenytoin). −
(§2) However, as some conversions were catalyzed by several enzymes, the conversion rates in HLM increased (e.g., bupropion and diclofenac).
(§3) To examine a possible in vitro CYP inhibition, the following CYP enzymes and marker substrates were investigated according to the FDA: , phenacetin (CYP1A2), bupropion (CYP2B6), amodiaquine (CYP2C8), diclofenac (CYP2C9), amitriptyline (CYP2C19), dextromethorphan (CYP2D6), testosterone (CYP3A4), and nifedipine (CYP3A4). Incubation was performed in a 0.2 mL reaction mix consisting of PBS buffer (pH 7.4), 1 mM marker substrate, 1 mM NADPH, and either 0.5 mg/mL recombinant CYP enzyme or human liver microsomes. P8-D6 was added for a final concentration of 0.5 μM, 1 μM, 5 μM, 10 μM, 25 μM, 50 μM, 100 μM, 500 μM, 1000 μM, and (in some cases) 5000 μM. Sample preparation was performed according to in vitro biotransformation.

Another series in a line: Lipophilicity. It is filed as physicochemical.
The next series deals with T2, CYP2D6 (Homo sapiens, UniProt P10635).
T2 construct: host or cells: human liver microsomes (one value) / recombinant CYP enzyme (other value)
T2 sequence (P10635 whole entry): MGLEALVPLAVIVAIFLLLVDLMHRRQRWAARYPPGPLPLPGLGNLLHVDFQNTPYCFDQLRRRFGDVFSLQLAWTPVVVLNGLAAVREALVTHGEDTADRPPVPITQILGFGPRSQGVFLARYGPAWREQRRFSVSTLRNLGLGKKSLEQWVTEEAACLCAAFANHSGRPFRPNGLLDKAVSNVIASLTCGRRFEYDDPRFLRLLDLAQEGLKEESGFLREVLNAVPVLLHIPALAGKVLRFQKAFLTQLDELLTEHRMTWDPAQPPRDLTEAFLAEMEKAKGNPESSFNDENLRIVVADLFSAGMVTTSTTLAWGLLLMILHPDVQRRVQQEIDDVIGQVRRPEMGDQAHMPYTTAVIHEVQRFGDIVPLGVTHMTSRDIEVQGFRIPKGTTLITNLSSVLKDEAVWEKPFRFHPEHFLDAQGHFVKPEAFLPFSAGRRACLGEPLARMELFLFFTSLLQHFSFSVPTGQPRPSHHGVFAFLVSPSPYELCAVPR
Briefly: In vitro CYP inhibition, marker substrate dextromethorphan. It counts as in vitro ADME. As for the experimental part:
as §1, §2, §3

Series [1] relates to kidney tissue (γH2AX, c-PARP, OGG1). In words: In vivo tolerability and immunohistochemistry of tissue damage markers. Further details: species or system Sprague–Dawley rats. The text has this:
Organs were immunostained with antibodies to detect reactive oxygen species, DNA damage, and caspase levels, not showing abnormalities in the liver, lungs, spleen, kidneys, and colon (Figure E).
OGG1, a marker for oxidative DNA damage produced by reactive oxygen species, was expressed weakly in the background and cytoplasm of the negative control samples of kidney tissue. […] No specific immunohistochemical reactions could be observed for the other organs.
Tissues were fixed with 4% formaldehyde and dehydrated with an ethanol series before embedding in paraffin. Tissue sections were cut using a microtome; the tissue sections were deparaffinized and rehydrated in water. Hematoxylin and eosin (H and E) staining was carried out on a Tissue Tek Prisma Plus autostainer (SAKURA). For immunohistochemistry, sections were stained with antibodies directed against γH2AX (Cell Signaling #9718, dilution 1:200, DNA-damage), OGG1 (Proteintech #15125-1-AP, dilution 1:200, DNA-damage), and c-PARP (Abcam #ab32064, dilution 1:200, DNA-damage). […] The immunoreaction was visualized with the Bond Polymer Refine Detection Kit (DS 9800; brown labeling; Novocastra; Leica Biosystems GmbH), resulting in a brown color and counterstained with hematoxylin. The IHC stainings were carried out on the autostainer BOND RX system (Leica Biosystems GmbH). The stained tissue sections were digitalized with a NanoZoomer S60 Digital slide scanner (Hamamatsu) at a 40× magnification objective and analyzed by board-certified pathologists. The samples from three mice were analyzed.

For the next series, the system named is γ-globulins. Briefly: Binding to isolated plasma protein by ultrafiltration. Further details: species or system human. On the procedure: To examine the effect of the P8-D6 plasma protein binding on the in vivo bioavailability, human and rat plasma was spiked in vitro and incubated with P8-D6. By using ultrafiltration to separate free P8-D6 from the protein-bound fraction, a plasma protein binding of 99% (Figure A) was estimated. However, neither human α-1-microglobulin (3.06%) nor human serum albumin (0.91%) is responsible for binding. According to initial findings, γ-globulins (94.59%), human transferrin (90.43%), LDL (87.99%), human α2-HS glycoprotein (85.29%), and human fibrinogen (78.89%) lead to binding of P8-D6.
To examine the extent of plasma protein binding, 150 μL of blank samples of human plasma (1 mM) and rat plasma (1 mM), human albumin (1 mM, #A1653, Merck KGaA, Darmstadt); human α1-acid glycoprotein (1 mM; #G9885, Merck KGaA, Darmstadt); human α2-HS-glycoprotein (0.1 mM; #G0516, Merck KGaA, Darmstadt); human transferrin (0.2 mM; #T8158, Merck KGaA, Darmstadt); human fibrinogen (0.2 mM; #F3879, Merck KGaA, Darmstadt); LDL (0.2 mM; […]); and human γ-globulin (1 mM; #G4386, Merck KGaA, Darmstadt) were spiked with P8-D6 in the same final concentration as the protein and incubated in a shaking water bath at 37 °C for 120 min. Afterward, the unbound fraction of P8-D6 was separated by ultrafiltration (Vivaspin 500 10 000 MWCO filter). The sample preparation was performed according to plasma samples. […]

For a further series, the target named is T3, CYP2B6 (Homo sapiens, UniProt P20813).
T3 construct: host or cells: human liver microsomes (one value) / recombinant CYP enzyme (other value)
T3 sequence (P20813 whole entry): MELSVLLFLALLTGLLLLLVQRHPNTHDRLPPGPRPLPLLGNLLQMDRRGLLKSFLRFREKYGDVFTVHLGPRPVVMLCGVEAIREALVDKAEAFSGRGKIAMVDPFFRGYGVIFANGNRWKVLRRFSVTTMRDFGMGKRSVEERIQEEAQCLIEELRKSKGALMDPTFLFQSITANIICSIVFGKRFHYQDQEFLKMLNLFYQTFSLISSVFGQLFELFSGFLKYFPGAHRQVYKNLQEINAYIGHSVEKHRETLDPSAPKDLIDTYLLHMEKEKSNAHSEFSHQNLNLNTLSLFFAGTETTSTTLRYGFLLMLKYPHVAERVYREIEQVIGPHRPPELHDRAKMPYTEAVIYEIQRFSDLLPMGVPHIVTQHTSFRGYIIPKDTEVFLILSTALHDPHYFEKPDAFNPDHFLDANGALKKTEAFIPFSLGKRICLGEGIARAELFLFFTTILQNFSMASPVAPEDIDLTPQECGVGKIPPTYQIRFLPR
Briefly: In vitro CYP inhibition, marker substrate bupropion. It counts as in vitro ADME. On the procedure: as §1, §2, §3

Another series concerns the target T4, CYP2C19 (Homo sapiens, UniProt P33261).
T4 construct: host or cells: human liver microsomes (one value) / recombinant CYP enzyme (other value)
Briefly: In vitro CYP inhibition, marker substrate amitriptyline. It is filed as in vitro ADME. As for the experimental part: as §1, §2, §3

The next series concerns the target T5, CYP2C8 (Homo sapiens, UniProt P10632).
T5 construct: host or cells: human liver microsomes (one value) / recombinant CYP enzyme (other value)
Briefly: In vitro CYP inhibition, marker substrate amodiaquine. It counts as in vitro ADME. On the procedure: as §1, §2, §3

T1 sequence (P05177 whole entry): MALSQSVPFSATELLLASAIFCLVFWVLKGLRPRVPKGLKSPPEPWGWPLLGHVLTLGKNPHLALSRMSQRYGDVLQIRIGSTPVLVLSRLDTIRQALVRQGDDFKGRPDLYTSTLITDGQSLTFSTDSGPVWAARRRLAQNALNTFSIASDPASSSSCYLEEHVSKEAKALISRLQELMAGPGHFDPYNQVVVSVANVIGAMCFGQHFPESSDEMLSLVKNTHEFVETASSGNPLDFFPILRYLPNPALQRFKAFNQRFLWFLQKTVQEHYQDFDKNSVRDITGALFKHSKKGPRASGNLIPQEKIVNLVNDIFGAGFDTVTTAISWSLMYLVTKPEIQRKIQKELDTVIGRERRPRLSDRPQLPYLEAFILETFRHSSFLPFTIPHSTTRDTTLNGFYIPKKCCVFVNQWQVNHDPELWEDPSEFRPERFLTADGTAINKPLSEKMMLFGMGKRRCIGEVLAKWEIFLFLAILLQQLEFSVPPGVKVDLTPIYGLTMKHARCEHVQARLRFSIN
T5 sequence (P10632 whole entry): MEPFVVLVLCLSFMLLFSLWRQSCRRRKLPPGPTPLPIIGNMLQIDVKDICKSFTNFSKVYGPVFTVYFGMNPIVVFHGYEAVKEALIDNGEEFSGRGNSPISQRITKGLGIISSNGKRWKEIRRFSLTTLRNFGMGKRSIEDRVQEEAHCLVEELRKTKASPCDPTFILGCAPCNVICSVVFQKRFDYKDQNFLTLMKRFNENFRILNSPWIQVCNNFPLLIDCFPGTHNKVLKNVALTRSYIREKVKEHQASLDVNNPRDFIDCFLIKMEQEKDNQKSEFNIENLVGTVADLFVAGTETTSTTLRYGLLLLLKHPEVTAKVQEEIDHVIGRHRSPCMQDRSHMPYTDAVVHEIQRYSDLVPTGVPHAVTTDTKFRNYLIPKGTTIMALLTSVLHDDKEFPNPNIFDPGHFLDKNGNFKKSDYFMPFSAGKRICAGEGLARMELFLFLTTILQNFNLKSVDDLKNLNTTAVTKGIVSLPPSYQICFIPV
T4 sequence (P33261 whole entry): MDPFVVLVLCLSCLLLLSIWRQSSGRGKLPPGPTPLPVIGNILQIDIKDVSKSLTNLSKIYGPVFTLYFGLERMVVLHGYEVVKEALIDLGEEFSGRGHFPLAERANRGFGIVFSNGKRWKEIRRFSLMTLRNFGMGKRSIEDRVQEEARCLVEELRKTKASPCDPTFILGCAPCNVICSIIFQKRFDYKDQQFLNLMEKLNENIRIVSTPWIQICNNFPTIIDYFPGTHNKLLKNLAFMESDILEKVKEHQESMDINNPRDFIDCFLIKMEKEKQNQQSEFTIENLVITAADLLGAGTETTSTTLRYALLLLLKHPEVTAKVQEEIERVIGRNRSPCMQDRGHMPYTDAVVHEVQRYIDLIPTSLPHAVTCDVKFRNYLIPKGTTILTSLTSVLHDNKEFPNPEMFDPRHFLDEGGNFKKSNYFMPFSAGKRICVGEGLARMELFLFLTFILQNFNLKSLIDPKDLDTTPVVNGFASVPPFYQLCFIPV

Turning to `COc1cc(-c2cc3ccncc3c3nc(OCCN(C)C)c4cnccc4c23)cc(OC)c1OC` [P8-D6, 6-(N,N-dimethyl-2-aminoethoxy)-11-(3,4,5-trimethoxyphenyl)-pyrido[3,4-c][1,9]-phenanthroline], the IC50 against CYP1A2 (HLM) is 912 µM; on CYP1A2 (recombinant CYP isoenzyme), 503 µM; against CYP2D6 (HLM) it was 285 µM; at CYP2D6 (recombinant CYP isoenzyme) it was 166 µM; at CYP2B6 (HLM), > 1000 µM; at CYP2B6 (recombinant CYP isoenzyme) it was > 1000 µM. Moreover, the IC50 against CYP2C19 (HLM) is 149 µM; on CYP2C19 (recombinant CYP isoenzyme), 793 µM; on CYP2C8 (HLM), 246 µM; on CYP2C8 (recombinant CYP isoenzyme) it was 282 µM. Further, in the series “Lipophilicity”, the log partition coefficient (logP) worked out at 2.9. The logD in the series “Lipophilicity” (pH 7.4, read-out: log D7.4) worked out at 3.7. In addition, the “OGG1 immunohistochemistry (oxidative DNA damage)” value in series [1] (kidney tissue) is listed as “did not significantly differ from the negative control”. In series [1] (kidney tissue), the “γH2AX immunohistochemistry (marker for DNA damage)” value is “diffuse positivity”. The signs of toxicity result in series [1] (p.o. 50 mg/kg BW and i.v. 10 mg/kg BW) is on record as “no signs of toxicity”. Also, the “C-PARP immunohistochemistry (marker of apoptosis)” value in series [1] (vs positive and negative control) is reported as “no significant difference”. Moreover, in the series on γ-globulins, the “binding of P8-D6” value worked out at 94.59%.

A word on the IC50: it is the concentration that inhibits the measured activity by half. As usually defined, the logP is a log measure of how a compound divides between an organic and an aqueous phase. Low readings indicate lower lipophilicity, high ones higher lipophilicity.
